Measured values published in article PMC7363588, “Mapping of the FGF14:Nav1.6 complex interface reveals FLPK as a functionally active peptide modulating excitability” (Physiological Reports, 2020).
Entries after “also recorded” stand apart in the source; their conditions may differ. Peptide text beside a SMILES is read from it.

What was measured:
Nav1.6 C-terminal tail = molecular target: T1, Nav1.6 C-terminal tail (Homo sapiens, UniProt Q9UQD0); assay: SPR binding to Nav1.6 C-terminal tail; settings: for koff, dissociation rate constant / kon, association rate constant: CM5, 25°C, 1–100 µM, RU 12,000, N.M. = not measurable; for binding to Nav1.6 C-terminal tail: peptide 1–100 µM
T1 construct: aa 1756–1939); 6X His (N); made in house; host or cells: E. coli BL21 (DE3) pLys
Text: Plasmids used in this study derived from the following clones: human FGF14‐1b isoform (accession number: NM_175929.2) and human Nav1.6 (accession number: NM_014191.3). The CLuc‐FGF14, CD4‐Nav1.6‐NLuc, constructs and the pcDNA3.1 vector (Invitrogen, Carlsbad, CA) were engineered and characterized as previously described (Goetz et al., 2009; Shavkunov et al., 2012,2013,2015; Ali et al., 2016, 2018; Wadsworth et al., 2019). The plasmid pGL3 expressing full length Firefly (Photinus pyralis) luciferase was a gift from Dr. P. Sarkar (Department of Neurology, UTMB). For protein purification studies, cDNAs encoding FGF14‐1b (accession number NP_787125; aa 64–252) or the C‐terminal tail of Nav1.6 (accession number #NP_001171455; aa 1756–1939) were subcloned into suitable pET bacterial expression vectors (pET28a‐FGF14; pET30a‐Nav1.6) with a 6X His‐tag at the N‐terminal site; these plasmids were a gift of Dr. Moosa Mohammadi (NYU, Langone Medical Center). The mutation coding for FGF14^V160A was generated by site‐directed mutagenesis and PCR using FGF14‐1b as a template described previously (Ali et al., 2016). For electrophysiological studies FGF14‐GFP (human) and FGF14‐ΔNT‐GFP (human) were cloned into the GFP plasmid (pQBI‐fC2; Quantum Biotechnology Inc., Montreal, Canada) as previously described.
Upon transformation with corresponding cDNA clones, the recombinant proteins FGF14, FGF14^V160A and Nav1.6 C‐terminal tail were expressed in E. coli BL21 (DE3) pLys (Invitrogen) after induction with 0.1 mM isopropyl thio‐β‐D‐galacto‐pyranoside (IPTG) for 24 hr at 16°C. After induction with IPTG, bacterial cells were harvested and lysed by sonication at 4°C in lysis/binding buffer containing following components (mM): sodium phosphate 10 (prepared from 0.5 M of Na2HPO4 and NaH2PO4) + 3‐cholamidopropyl dimethylammonio 1‐propanesulfonate 0.1% pH 7.0 (for FGF14 proteins) + HEPES 25 + NaCl 150 + glycerol 10% (Nav1.6) pH 7.5 and containing 0.1 mM phenyl methyl sulphonyl fluoride (PMSF). The respective proteins were centrifuged at 18,000 g for 30 min at 4°C. For purification of FGF14 and FGF14^V160A, the supernatant was applied to preequilibrated heparin and the proteins were then eluted with NaCl 0.2–2.0 M in the elution (sodium phosphate 10 mM + NaCl 0.2–2.0 M pH 7.0) buffer. For purification of the Nav1.6 C‐tail, the supernatant was applied first to Ni^2+ NTA column and eluted with imidazole (200 mM). The Nav1.6 C‐tail was further purified using HiTrap QFF‐sepharose column (GE Healthcare Bio‐Sciences, Pittsburgh, PA) with a buffer containing Tris‐HCl 50 mM and eluted with NaCl (10–500 mM) at pH 7.5. Finally, all concentrated proteins were purified on an AKTA FPLC purifier using Superdex 200 Hiload 16 × 60 columns (GE Healthcare Bio‐Sciences) and equilibrated in Tris‐HCl 50 mM + NaCl 150 mM, pH 7.5 (Ali et al., 2016; Scala et al., 2018).
SPR experiments were performed on a Biacore T100 (GE Healthcare Bio‐Sciences, Pittsburgh, PA), and the interaction of FGF14 and Nav1.6 channel toward FLPK, PLEV and EYYV (1–100 µM) were studied at 25°C. To analyze the effects of FLPK, PLEV and EYYV on FGF14^WT (RU 16,000), FGF14^V160A (RU 18,000) and Nav1.6 C‐tail (RU 12,000), the proteins were immobilized on CM5 sensor chip using Acetate 5.5 with Amine Coupling Kit (Biacore GE Healthcare Bio‐Sciences). No protein was coupled to the control flow channel of the chip. Using a flow rate of 50 µl/min, FLPK, PLEV and EYYV (1–100 µM) diluted in HBS‐P^+ buffer were injected over the chip for 180 s, followed by injection of HBS‐P+ for 180 s to monitor dissociation, and finally the chip surface was regenerated with NaCl (200 mM). For each peptide injection, nonspecific responses (buffer only) were subtracted from experimental sensograms/traces prior to data analysis. Maximal equilibrium responses were plotted against peptide concentrations and association rate constant (kon), dissociation rate constatnt (koff) were determined. […]

[1] = test system: FGF14^Y158N/V160N:Nav1.6 complex; assay: LCA, CLuc-FGF14^Y158N/V160N; type: cell-based, human; settings: 50 µM peptide, 12 hr, HEK293, vs DMSO

T1 sequence (Q9UQD0 1797-1980): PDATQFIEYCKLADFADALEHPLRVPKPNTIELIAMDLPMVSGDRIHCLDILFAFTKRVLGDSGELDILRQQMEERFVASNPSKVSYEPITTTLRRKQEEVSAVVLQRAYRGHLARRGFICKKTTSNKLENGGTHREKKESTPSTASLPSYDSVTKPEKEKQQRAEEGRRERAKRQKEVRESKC

Molecule | koff, dissociation rate constant (Nav1.6 C-terminal tail) | kon, association rate constant (Nav1.6 C-terminal tail) | binding to Nav1.6 C-terminal tail (Nav1.6 C-terminal tail) | effect on FGF14^Y158N/V160N:Nav1.6 complex formation [1]
EYYV [tetrapeptide previously designed from FGF14:FGF14 dimer interface; docked with N-terminal acetylation and C-terminal amidation] | N.M. | N.M. | no appreciable affinity to either protein was detected | 
CC(=O)N[C@@H](Cc1ccccc1)C(=O)N[C@@H](CC(C)C)C(=O)N1CCC[C@H]1C(=O)N[C@@H](CCCCN)C(N)=O [FLPK] (Ac-FLPK-NH2) | N.M. | N.M. | no measurable binding | abolished the effect of FLPK; also recorded: similarly abolished
PLEV [tetrapeptide previously designed from FGF14:FGF14 dimer interface; docked with N-terminal acetylation and C-terminal amidation] | N.M. | N.M. | no appreciable affinity to either protein was detected | increased the inhibition
